Source: patent US4808711A, “Cephalosporin derivatives” (Sankei Pharmaceutical Co., Ltd., priority 1985, dated 1989)
≈ marks a conversion by molar mass, not a printed value. Structures can show the parent of a compound that is named as a salt. Where two headings read alike, the source gives them in different places.

Key:
Format in all cases: cell-based
[1] = tested on: S. typhimurium IFO 12529; assay: MIC, S. typhimurium IFO 12529; details: Salmonella enterica, read-out: MIC
Description: (§1) The minimum inhibition concentrations (MIC) of the compounds obtained by the present invention were measured according to the standard method of Japanese Chemotherapy Association.

[2] = tested on: P. maltophilia ATCC13637; assay: MIC, P. maltophilia ATCC13637; details: Stenotrophomonas maltophilia
Description: as §1

[3] = tested on: S. aureus Smith; assay: MIC, S. aureus Smith; details: Staphylococcus aureus, read-out: MIC
Description: as §1

[4] = tested on: S. flexneri Y NCTC 9730; assay: MIC, S. flexneri Y NCTC 9730; details: Shigella flexneri, NCTC9730, read-out: MIC
Description: as §1

[5] = tested on: S. boyadii CDC 2064-59; assay: MIC, S. boyadii CDC 2064-59
Description: as §1

[6] = tested on: S. paratyphi B; assay: MIC, S. paratyphi B; details: Salmonella enterica, PARATYPHI
Description: as §1

[7] = tested on: E. coli ATCC25922; assay: MIC, E. coli ATCC25922; details: Escherichia coli, read-out: MIC
Description: as §1

[8] = tested on: S. aureus ATCC25923; assay: MIC, S. aureus ATCC25923; details: Staphylococcus aureus
Description: as §1

[9] = tested on: P. aeruginosa ATCC9721; assay: MIC, P. aeruginosa ATCC9721; details: Pseudomonas aeruginosa
Description: as §1

[10] = tested on: S. typhimurium ATCC13311; assay: MIC, S. typhimurium ATCC13311; details: Salmonella enterica, read-out: MIC
Description: as §1

[11] = tested on: B. subtilis ATCC6633; assay: MIC, B. subtilis ATCC6633; details: Bacillus subtilis
Description: as §1

[12] = tested on: C. freundii IFO12681; assay: MIC, C. freundii IFO12681; details: Citrobacter freundii, read-out: MIC
Description: as §1

[13] = tested on: P. vulgaris ATCC6398; assay: MIC, P. vulgaris ATCC6398; details: Proteus vulgaris, read-out: MIC
Description: as §1

[14] = tested on: S. aureus TASAKI; assay: MIC, S. aureus TASAKI; details: Staphylococcus aureus
Description: as §1

[15] = tested on: P. putida ATCC12633; assay: MIC, P. putida ATCC12633; details: Pseudomonas putida
Description: as §1

[16] = tested on: P. cepacia ATCC25416; assay: MIC, P. cepacia ATCC25416; details: Burkholderia cepacia, read-out: MIC
Description: as §1

[17] = tested on: S. marcescens IFO12648; assay: MIC, S. marcescens IFO12648; details: Serratia marcescens, read-out: MIC
Description: as §1

[18] = tested on: S. flexneri 2a CDC 4807-62; assay: MIC, S. flexneri 2a CDC 4807-62; details: Shigella flexneri, read-out: MIC
Description: as §1

[19] = tested on: S. anatum 677-69; assay: MIC, S. anatum 677-69; details: Salmonella enterica, 67769, read-out: MIC
Description: as §1

[20] = tested on: P. rettgeri ATCC14505; assay: MIC, P. rettgeri ATCC14505; details: Providencia rettgeri, read-out: MIC
Description: as §1

[21] = tested on: S. newport 563; assay: MIC, S. newport 563; details: Salmonella enterica, read-out: MIC
Description: as §1

[22] = tested on: S. paratyphi C 33-76; assay: MIC, S. paratyphi C 33-76; details: Salmonella enterica, PARATYPHI
Description: as §1

[23] = tested on: S. paratyphi A 144-12-93; assay: MIC, S. paratyphi A 144-12-93; details: Salmonella enterica, PARATYPHI
Description: as §1

[24] = tested on: S. sonnei SH72-415; assay: MIC, S. sonnei SH72-415; details: Shigella sonnei, SH72415, read-out: MIC
Description: as §1

[25] = tested on: K. pneumoniae ATCC27736; assay: MIC, K. pneumoniae ATCC27736; details: Klebsiella pneumoniae, read-out: MIC
Description: as §1

[26] = tested on: E. cloacae ATCC13047; assay: MIC, E. cloacae ATCC13047; details: Enterobacter cloacae
Description: as §1

[27] = tested on: S. faecalis IFO3826; assay: MIC, S. faecalis IFO3826; details: Enterococcus faecalis, read-out: MIC
Description: as §1

[28] = tested on: S. aureus 209P JC-1; assay: MIC, S. aureus 209P JC-1; details: Staphylococcus aureus
Description: as §1

[29] = tested on: P. vulgaris ATCC6380; assay: MIC, P. vulgaris ATCC6380; details: Proteus vulgaris, read-out: MIC
Description: as §1

[30] = tested on: S. dysenteriae 4379-60; assay: MIC, S. dysenteriae 4379-60; details: Shigella dysenteriae, 437960
Description: as §1

[31] = tested on: S. epidermidis ATCC14990; assay: MIC, S. epidermidis ATCC14990; details: Staphylococcus epidermidis, read-out: MIC
Description: as §1

[32] = tested on: E. coli NIHJ JC-2; assay: MIC, E. coli NIHJ JC-2; details: Escherichia coli, NIHJJC2, read-out: MIC
Description: as §1

[33] = tested on: S. typhi 1099-77; assay: MIC, S. typhi 1099-77; details: Salmonella enterica, TYPHI
Description: as §1

[34] = tested on: P. mirabilis IFO3849; assay: MIC, P. mirabilis IFO3849; details: Proteus mirabilis, read-out: MIC
Description: as §1

[35] = tested on: P. fluorescens ATCC13525; assay: MIC, P. fluorescens ATCC13525; details: Pseudomonas fluorescens, read-out: MIC
Description: as §1

[36] = S. aureus ATCC25923, read-out: MIC
[37] = P. aeruginosa ATCC9721, read-out: MIC
[38] = B. subtilis ATCC6633, read-out: MIC
[39] = S. aureus TASAKI, standard method of Japanese Chemotherapy Association, read-out: MIC
[40] = S. aureus 209P JC-1, read-out: MIC

Row | Structure (SMILES) | MIC [1] [mg/L] | MIC [2] [mg/L] | MIC [3] [mg/L] | MIC [4] [mg/L] | MIC [5] [mg/L] | MIC [6] [mg/L] | MIC [7] [mg/L] | MIC [10] [mg/L] | MIC [12] [mg/L] | MIC [13] [mg/L] | MIC [15] [mg/L] | MIC [16] [mg/L] | MIC [17] [mg/L] | MIC [18] [mg/L] | MIC [19] [mg/L] | MIC [20] [mg/L] | MIC [21] [mg/L] | MIC [22] [mg/L] | MIC [23] [mg/L] | MIC [24] [mg/L] | other results
1 | CO[C@@]1(NC(=O)C(C(=O)O)c2ccc(O)cc2)C(=O)N2C(C(=O)O)=C(CSc3nnnn3C)CO[C@@H]21 (some centres unmarked) [LMOX, latamoxiceph] | 0.1 (≈ 0.192 µM) | 25 (≈ 48 µM) | 6.25 (≈ 12 µM) | 3.13 (≈ 6.01 µM) | 3.13 (≈ 6.01 µM) | 0.05 (≈ 0.0961 µM) | 0.2 (≈ 0.384 µM) | 0.05 (≈ 0.0961 µM) | 0.1 (≈ 0.192 µM) | 0.2 (≈ 0.384 µM) | 25 (≈ 48 µM) | 6.25 (≈ 12 µM) | 0.2 (≈ 0.384 µM) | 0.1 (≈ 0.192 µM) | 0.1 (≈ 0.192 µM) | 0.1 (≈ 0.192 µM) | 0.1 (≈ 0.192 µM) | 0.025 (≈ 0.048 µM) | 0.2 (≈ 0.384 µM) | 0.1 (≈ 0.192 µM) | MIC ([8]; ATCC25923): 3.13 mg/L (≈ 6.01 µM); MIC ([9]; ATCC9721): 3.13 mg/L (≈ 6.01 µM); MIC ([11]; ATCC6633): 3.13 mg/L (≈ 6.01 µM); MIC [14]: 3.13 mg/L (≈ 6.01 µM); MIC [25]: 0.05 mg/L (≈ 0.0961 µM); MIC [26]: 0.78 mg/L (≈ 1.5 µM); MIC [27]: > 100 mg/L; MIC ([28]; 209P): 3.13 mg/L (≈ 6.01 µM); MIC [29]: 0.2 mg/L (≈ 0.384 µM); MIC [30]: 0.05 mg/L (≈ 0.0961 µM); MIC [31]: 6.25 mg/L (≈ 12 µM); MIC [32]: 0.2 mg/L (≈ 0.384 µM); MIC [33]: 0.05 mg/L (≈ 0.0961 µM); MIC [34]: 0.1 mg/L (≈ 0.192 µM)
2 | Cn1nnnc1SCC1=C(C(=O)O)N2C(=O)C(NC(=O)C(=NOCC(=O)NN=Cc3ccc(O)c(O)c3)c3csc(N)n3)C2SC1 (centres unmarked) [Example 2, 7-{2-[2-amino-1,3-thiazol-4-yl]-2-[3-(3,4-dihydroxybenzylidene)carbazoyl]methoxyiminoacetamido}-3-[(1-methyl-1,2,3,4-tetrazol-5-yl)thiomethyl]-3-cephem-4-carboxylic acid.hydrochloride] | 0.39 | 1.56 | 3.13 | 0.78 | 0.78 | 0.025 | 0.2 | 0.05 | 0.39 | 0.05 | 1.56 | 0.78 | 0.39 | 0.1 | 0.05 | 0.39 | 0.05 | 0.012 | 0.05 | 0.05 | MIC [8, 36]: 0.78 mg/L; MIC [35]: 12.5 mg/L; MIC [9, 37]: 0.2 mg/L; MIC [11, 38]: 0.39 mg/L; MIC [14, 39]: 1.56 mg/L; MIC [25]: 0.025 mg/L; MIC [26]: 3.13 mg/L; MIC [27]: > 100 mg/L; MIC [28, 40]: 0.78 mg/L; MIC [29]: 0.2 mg/L; MIC [30]: 0.025 mg/L; MIC [31]: 0.78 mg/L; MIC [32]: 0.39 mg/L; MIC [33]: ≤ 0.006 mg/L; MIC [34]: 0.2 mg/L
3 | Cn1nnnc1SCC1=C(C(=O)O)N2C(=O)C(NC(=O)C(=NOCC(=O)NNC(=O)c3ccc(O)c(O)c3)c3csc(N)n3)C2SC1 (centres unmarked) [Example 62] | 0.05 (≈ 0.0708 µM) | 1.56 (≈ 2.21 µM) | 3.13 (≈ 4.44 µM) | 0.78 (≈ 1.11 µM) | 0.39 (≈ 0.553 µM) | 0.012 (≈ 0.017 µM) | 0.2 (≈ 0.283 µM) | 0.025 (≈ 0.0354 µM) | 0.39 (≈ 0.553 µM) | 0.05 (≈ 0.0708 µM) | 1.56 (≈ 2.21 µM) | 0.78 (≈ 1.11 µM) | 0.39 (≈ 0.553 µM) | 0.1 (≈ 0.142 µM) | 0.025 (≈ 0.0354 µM) | 1.56 (≈ 2.21 µM) | 0.05 (≈ 0.0708 µM) | 0.012 (≈ 0.017 µM) | 0.025 (≈ 0.0354 µM) | 0.05 (≈ 0.0708 µM) | MIC [8, 36]: 0.39 mg/L (≈ 0.553 µM); MIC [35]: 12.5 mg/L (≈ 17.7 µM); MIC [9, 37]: 0.1 mg/L (≈ 0.142 µM); MIC [11, 38]: 0.39 mg/L (≈ 0.553 µM); MIC [14, 39]: 1.56 mg/L (≈ 2.21 µM); MIC [25]: 0.012 mg/L (≈ 0.017 µM); MIC [26]: 3.13 mg/L (≈ 4.44 µM); MIC [27]: > 100 mg/L; MIC [28, 40]: 0.39 mg/L (≈ 0.553 µM); MIC [29]: 0.39 mg/L (≈ 0.553 µM); MIC [30]: 0.025 mg/L (≈ 0.0354 µM); MIC [31]: 0.39 mg/L (≈ 0.553 µM); MIC [32]: 0.78 mg/L (≈ 1.11 µM); MIC [33]: ≤ 0.006 mg/L; MIC [34]: 0.39 mg/L (≈ 0.553 µM)
